From patent US7537891B2, “Identification of polynucleotides for predicting activity of compounds that interact with and/or modulate protein tyrosine kinases and/or protein tyrosine kinase pathways in breast cells” (Bristol-Myers Squibb Company, priority 2002, dated 2009)

Experiments:
Assay in all cases: In vitro cytotoxicity assay (MTS)
Type in all cases: cell-based, human
Parameters in all cases: key to True Class: “S” represents Sensitive; “R” represents Resistant
AU-565 breast cell line = system: AU-565 breast cell line
Experimental: (§1) The protein tyrosine kinase inhibitor compound (described in international application WO 00/62778, published Oct. 26, 2000) was tested for cytotoxicity in vitro against a panel of twenty-three human breast cell lines available from the American Type Culture Collection, ATCC, except H3396, which was obtained from Pacific Northwest Research Institute, Seattle Wash. The MCF7/Her2 cell line was established by stable transfection of MCF7 cells with the HER2 gene. Cytotoxicity was assessed in cells by the MTS (3-(4,5-dimethylthiazol-2-yl)-5-(3-carboxymethoxyphenyl)-2-(4-sulphenyl)-2H-tetrazolium, inner salt) assay (T. L. Riss et al., 1992, Mol. Biol. Cell, 3 (Suppl.):184a).
(§2) To carry out the assays, the breast cells were plated at 4,000 cells/well in 96 well microtiter plates, and 24 hours later, serially diluted drugs were added. The concentration range for the protein tyrosine kinase inhibitor compound BMS-A used in the cytotoxicity assay was from 5 μg/ml to 0.0016 μg/ml (roughly 10 μM to 0.0032 μM).
(§3) The cells were incubated at 37° C. for 72 hours at which time the tetrazolium dye, MTS (333 μg/ml final concentration), in combination with the electron coupling agent phenazine methosulfate (25 μM final concentration), was added. A dehydrogenase enzyme in live cells reduces the MTS to a form that absorbs light and can be quantified spectrophotometrically at 492 nM. The greater the absorbency the greater the number of live cells. The results are expressed as an IC50, which is the drug concentration required to inhibit cell proliferation (i.e. absorbance at 492 nm) to 50% of that of untreated control cells. The mean IC50 and standard deviation (SD) from multiple tests for each cell line were calculated.

HCC1419 breast cell line = system: HCC1419 breast cell line
Experimental: as §1, §2, §3

HCC1428 breast cell line = system: HCC1428 breast cell line
Experimental: as §1, §2, §3

HCC1806 breast cell line = system: HCC1806 breast cell line
Experimental: as §1, §2, §3

HCC1954 breast cell line = system: HCC1954 breast cell line
Experimental: as §1, §2, §3

HCC38 breast cell line = system: HCC38 breast cell line
Experimental: as §1, §2, §3

HS578T breast cell line = system: HS578T breast cell line
Experimental: as §1, §2, §3

MCF7 breast cell line = system: MCF7 breast cell line
Experimental: as §1, §2, §3

[1] = system: MDA-MB-231 breast cell line
Experimental: as §1, §2, §3

[2] = system: MDA-MB-435S breast cell line
Experimental: as §1, §2, §3

[3] = system: MDA-MB-436 breast cell line
Experimental: as §1, §2, §3

[4] = system: MDA-MB-453 breast cell line
Experimental: as §1, §2, §3

[5] = system: MDA-MB-468 breast cell line
Experimental: as §1, §2, §3

SK-BR-3 breast cell line = system: SK-BR-3 breast cell line
Experimental: as §1, §2, §3

[6] = system: ZR-75-30 breast cell line
Experimental: as §1, §2, §3

[7] = 72 hours, mean of 2 to 5 determinations, read-out: mean IC50 (μM) to BMS-A
[8] = assigned as in Table 1, based on the IC50 results for BMS-A
[9] = resistance/sensitivity to BMS-A based on IC50

**Q.** Which results are given for `Cc1nc(Nc2ncc(C(=O)Nc3c(C)cccc3Cl)s2)cc(N2CCN(CCO)CC2)n1` [BMS-A]?
**A.** True Class (AU-565 breast cell line; AU565, assigned as in Table 1, based on the IC50 results for BMS-A): R; IC50 (AU-565 breast cell line; AU-565, 72 hours, mean of 2 to 5 determinations, read-out: mean IC50 (μM) to BMS-A): 5.24 µM; Classification (AU-565 breast cell line; AU-565, resistance/sensitivity to BMS-A based on IC50): Resistant (those having a log10(IC50) above the mean log10(IC50) were considered to be resistant); IC50 (HCC1419 breast cell line; [7]): 2.51 µM; True Class (HCC1419 breast cell line; [8]): R; Classification (HCC1419 breast cell line; [9]): Resistant (those having a log10(IC50) above the mean log10(IC50) were considered to be resistant); IC50 (HCC1428 breast cell line; [7]): 7.29 µM; True Class (HCC1428 breast cell line; [8]): R; Classification (HCC1428 breast cell line; [9]): Resistant (those having a log10(IC50) above the mean log10(IC50) were considered to be resistant); IC50 (HCC1806 breast cell line; [7]): 0.219 µM; True Class (HCC1806 breast cell line; [8]): S; Classification (HCC1806 breast cell line; [9]): Sensitive (The cell lines with a log10(IC50) below the mean log10(IC50) were defined as sensitive to the compound); IC50 (HCC1954 breast cell line; [7]): 0.0242 µM; True Class (HCC1954 breast cell line; [8]): S; Classification (HCC1954 breast cell line; [9]): Sensitive (The cell lines with a log10(IC50) below the mean log10(IC50) were defined as sensitive to the compound); IC50 (HCC38 breast cell line; [7]): 6.63 µM; True Class (HCC38 breast cell line; [8]): R; Classification (HCC38 breast cell line; [9]): Resistant (those having a log10(IC50) above the mean log10(IC50) were considered to be resistant); IC50 (HS578T breast cell line; HS578T, 72 hours, mean of 2 to 5 determinations, read-out: mean IC50 (μM) to BMS-A): 0.647 µM; Classification (HS578T breast cell line; HS578T, resistance/sensitivity to BMS-A based on IC50): Sensitive (The cell lines with a log10(IC50) below the mean log10(IC50) were defined as sensitive to the compound); True Class (HS578T breast cell line; Hs578T, assigned as in Table 1, based on the IC50 results for BMS-A): S; IC50 (MCF7 breast cell line; [7]): > 9.52 µM; True Class (MCF7 breast cell line; [8]): R; Classification (MCF7 breast cell line; [9]): Resistant (those having a log10(IC50) above the mean log10(IC50) were considered to be resistant); IC50 ([1]; MDA-MB-231, 72 hours, mean of 2 to 5 determinations, read-out: mean IC50 (μM) to BMS-A): 0.0095 µM; Classification ([1]; MDA-MB-231, resistance/sensitivity to BMS-A based on IC50): Sensitive (The cell lines with a log10(IC50) below the mean log10(IC50) were defined as sensitive to the compound); True Class ([1]; MDAMB231, assigned as in Table 1, based on the IC50 results for BMS-A): S; IC50 ([2]; MDA-MB-435S, 72 hours, mean of 2 to 5 determinations, read-out: mean IC50 (μM) to BMS-A): 7.78 µM; Classification ([2]; MDA-MB-435S, resistance/sensitivity to BMS-A based on IC50): Resistant (those having a log10(IC50) above the mean log10(IC50) were considered to be resistant); True Class ([2]; MDAMB435S, assigned as in Table 1, based on the IC50 results for BMS-A): R; IC50 ([3]; MDA-MB-436, 72 hours, mean of 2 to 5 determinations, read-out: mean IC50 (μM) to BMS-A): > 9.52 µM; Classification ([3]; MDA-MB-436, resistance/sensitivity to BMS-A based on IC50): Resistant (those having a log10(IC50) above the mean log10(IC50) were considered to be resistant); True Class ([3]; MDAMB436, assigned as in Table 1, based on the IC50 results for BMS-A): R; IC50 ([4]; MDA-MB-453, 72 hours, mean of 2 to 5 determinations, read-out: mean IC50 (μM) to BMS-A): > 9.52 µM; Classification ([4]; MDA-MB-453, resistance/sensitivity to BMS-A based on IC50): Resistant (those having a log10(IC50) above the mean log10(IC50) were considered to be resistant); True Class ([4]; MDAMB453, assigned as in Table 1, based on the IC50 results for BMS-A): R; IC50 ([5]; MDA-MB-468, 72 hours, mean of 2 to 5 determinations, read-out: mean IC50 (μM) to BMS-A): 7.13 µM; Classification ([5]; MDA-MB-468, resistance/sensitivity to BMS-A based on IC50): Resistant (those having a log10(IC50) above the mean log10(IC50) were considered to be resistant); True Class ([5]; MDAMB468, assigned as in Table 1, based on the IC50 results for BMS-A): R; IC50 (SK-BR-3 breast cell line; SK-BR-3, 72 hours, mean of 2 to 5 determinations, read-out: mean IC50 (μM) to BMS-A): 2.75 µM; Classification (SK-BR-3 breast cell line; SK-BR-3, resistance/sensitivity to BMS-A based on IC50): Resistant (those having a log10(IC50) above the mean log10(IC50) were considered to be resistant); True Class (SK-BR-3 breast cell line; SkBr3, assigned as in Table 1, based on the IC50 results for BMS-A): R; IC50 ([6]; ZR-75-30, 72 hours, mean of 2 to 5 determinations, read-out: mean IC50 (μM) to BMS-A): 9.26 µM; Classification ([6]; ZR-75-30, resistance/sensitivity to BMS-A based on IC50): Resistant (those having a log10(IC50) above the mean log10(IC50) were considered to be resistant); True Class ([6]; Zr-75-30, assigned as in Table 1, based on the IC50 results for BMS-A): R
